# Tested on: Boophilus microplus, Biarra-Stamm
# Test: Tick test (Zeckentest): in vitro test for inhibition of egg laying after dipping adult engorged female ticks
# Format: in vivo
# Conditions: Rhipicephalus microplus, 480 h, resistant Biarra strain, 1 min dip, read after 20 days, read-out: 50 % Hemmung bei einer Wirkstoffkonzentration in ppm a.i. von
# Source text: Lösungsmittel: 35 Gewichtsteile Ethylenglykolmonomethylether 35 Gewichtsteile Nonylphenolpolyglykolether
# Zwecks Herstellung einer geeigneten Formulierung vermischt man drei Gewichtsteile Wirkstoff mit sieben Teilen des oben angegebenen Lösungsmittel-Emulgator-Gemisches und verdünnt das so erhaltene Emulsionskonzentrat mit Wasser auf die jeweils gewünschte Konzentration.
# In diese Wirkstoffzubereitungen werden adulte, vollgesogene Zeckenweibchen der Art Boophilus microplus (resistent) eine Minute lang getaucht. Nach dem Tauchen von je 10 weiblichen Exemplaren überführt man diese in Petrischalen, deren Boden mit einer entsprechend großen Filterscheibe belegt ist.
# Nach 20 Tagen wird die Wirksamkeit der Wirkstoffzubereitung bestimmt durch Ermittlung der Hemmung der Eiablage gegenüber unbehandelten Kontrollzecken. Die Wirkung drückt man in Prozent aus, wobei 100 % bedeutet, daß keine Eier mehr abgelegt wurden und 0 % besagt, daß die Zecken Eier in normaler Menge ablegten.
# Untersuchter Wirkstoff, geprüfte Konzentrationen, getestete Parasiten und erhaltene Befunde gehen aus der folgenden Tabelle hervor.
smiles,measurement,value
Cc1cc(Cl)ccc1NC(=S)N(C)C [Chloromethiuron],IC50,> 5000 µg/mL
